Reference: patent US8871760B2, “[1,2,4]triazolo[3,4-C][1,4]oxazines as P2X7 modulators” (Roche Palo Alto LLC, priority 2009, dated 2014)

biological target: T1, human P2X7 (UniProt Q99572); assay: Intracellular Calcium Flux (FLIPR) Assay; type: cell-based
T1 sequence (Q99572 1-595): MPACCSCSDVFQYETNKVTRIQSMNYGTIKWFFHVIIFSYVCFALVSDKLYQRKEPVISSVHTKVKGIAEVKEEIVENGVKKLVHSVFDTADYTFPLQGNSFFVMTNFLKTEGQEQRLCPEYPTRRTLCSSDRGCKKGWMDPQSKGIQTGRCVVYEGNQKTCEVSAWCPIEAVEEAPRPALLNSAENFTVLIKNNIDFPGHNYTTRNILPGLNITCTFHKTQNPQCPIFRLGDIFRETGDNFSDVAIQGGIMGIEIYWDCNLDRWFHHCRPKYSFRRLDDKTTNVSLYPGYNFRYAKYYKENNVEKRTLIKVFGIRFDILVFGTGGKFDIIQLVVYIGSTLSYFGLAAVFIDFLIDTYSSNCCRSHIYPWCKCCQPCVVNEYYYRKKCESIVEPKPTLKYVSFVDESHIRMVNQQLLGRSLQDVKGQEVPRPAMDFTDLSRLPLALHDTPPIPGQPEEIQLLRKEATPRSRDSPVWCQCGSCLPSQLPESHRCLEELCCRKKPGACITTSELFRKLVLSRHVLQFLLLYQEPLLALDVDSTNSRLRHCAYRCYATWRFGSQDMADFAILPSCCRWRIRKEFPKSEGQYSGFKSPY
Method: Intracellular Calcium Flux (FLIPR) Assay
Compound and Reagent Preparation
Stock solutions of compounds were prepared from powders as a 10 mM DMSO stock solution. These solutions were stored at RT during the two week period of these experiments to prevent freeze-thaw of the DMSO stocks. The DMSO stocks were added to the appropriate assay buffer at a concentration of 10 μM, and then diluted serially to the final concentrations that were tested. No observable precipitate was formed at any time during this process. The aqueous solutions of compounds as well as ATP (Sigma A7699) and BzATP (Sigma B6396) were prepared fresh for each day of experiment.
1321N1 cells stably expressing the full length human P2X7 gene (1321N1-hP2X7) and HEK293 cells stably expressing the full length rat P2X7 gene (HEK293-rP2X7) were obtained from the Roche Cell Culture Facility. 1321N1-hP2X7 cells were grown in Dulbecco's Modified Eagle's Medium (DMEM) high glucose supplemented with 10% FBS and […] G418. HEK293-rP2X7 cells were grown in DMEM/F-12 supplemented with 10% FBS, 1 mM CaCl2, 2 mM MgCl2, 2 mM L-Glutamine and […] G418. Cells were split such that they never became >70% confluent.
Intracellular Calcium Flux (FLIPR)
On the day prior to the experiment, 1321N1-hP2X7 or HEK293-rP2X7 cells were released into suspension with calcium-free PBS+Versene and washed by centrifugation with calcium-free PBS to remove the Versene. Cells were resuspended in growth medium at a density of 2.5×10^5 cells/mL and seeded into black walled, clear bottom 96 well plates (50,000 cells/well) approximately 18 hr prior to intracellular calcium flux experiments.
On the day of the experiment, plates were washed with FLIPR buffer (calcium- and magnesium-free Hank's Balanced Salt Solution (HBSS) supplemented with 10 mM Hepes, 2.5 mM probenecid and 2 mM calcium chloride) using a BIO-TEK 96 channel plate washer and incubated with […] fluo-3 dye at 37° C. for one hr. The dye was then removed by plate washing and the cells were allowed to equilibrate for 20 min at room temperature with antagonist or vehicle (FLIPR buffer). Agonist (100 μM BzATP final concentration for hP2X7; 5 μM BzATP final concentration or rP2X7) was added online with the FLIPR and fluorescence measurements made at 1 sec intervals for 60 sec followed by 3 sec intervals for a further 4 min (5 min total). A final addition of 5 μM ionomycin was made and the maximal BzATP-evoked fluorescence normalized to the maximal ionomycin-evoked fluorescence.

Row | pIC50 | SMILES
1 | 7.32 | COc1cc(Br)c(Nc2nnc3n2C(c2ccc(F)cc2)CN(C)C3)cc1OC (stereo not shown) [Compound 26, (2-Bromo-4,5-dimethoxy-phenyl)-[5-(4-fluoro-phenyl)-7-methyl-5,6,7,8-tetrahydro-[1,2,4]triazolo[4,3-a]pyrazin-3-yl]-amine]
2 | 8.035 | Cn1nccc(-c2ccc(F)c(Nc3nnc4n3[C@H](c3ccc(F)cc3)COC4)c2)c1=O [Compound 55, 4-{4-Fluoro-3-[(R)-5-(4-fluoro-phenyl)-5,6-dihydro-8H-[1,2,4]triazolo[3,4-c][1,4]oxazin-3-ylamino]-phenyl}-2-methyl-2H-pyridazin-3-one]
3 | 7.735 | Cc1ccc2ncccc2c1Nc1nnc2n1C(c1cccc(F)c1)COC2 (stereo not shown) [Compound 25, [5-(3-Fluoro-phenyl)-5,6-dihydro-8H-[1,2,4]triazolo[3,4-c][1,4]oxazin-3-yl]-(6-methyl-quinolin-5-yl)-amine]
4 | 7.17 | Cc1cc(Cl)c(-n2ncccc2=O)cc1Nc1nnc2n1[C@H](c1ccc(F)cc1)COC2 [Compound 50, 2-{2-Chloro-5-[(R)-5-(4-fluoro-phenyl)-5,6-dihydro-8H-[1,2,4]triazolo[3,4-c][1,4]oxazin-3-ylamino]-4-methyl-phenyl}-2H-pyridazin-3-one]
5 | 7.705 | Cc1cc(Cl)c(OCCO)cc1Nc1nnc2n1[C@H](c1ccc(F)cc1)C[S@@+]([O-])C2 [Compound 47, 2-{2-Chloro-5-[(5R,7R)-5-(4-fluoro-phenyl)-7-oxo-5,6,7,8-tetrahydro-7lambda*4*- [1,2,4]triazolo[3,4-c][1,4]thiazin-3-ylamino]-4-methyl-phenoxy}-ethanol]
6 | 7.865 | Cc1ccc(-c2ccnn(C)c2=O)cc1Nc1nnc2n1[C@H](c1ccc(F)cc1)COC2 [Compound 37, 4-{3-[(R)-5-(4-Fluoro-phenyl)-5,6-dihydro-8H-[1,2,4]triazolo[3,4-c][1,4]oxazin-3-ylamino]-4-methyl-phenyl}-2-methyl-2H-pyridazin-3-one]
7 | 7.325 | O=C1NCCCN1c1ccc(Br)c(Nc2nnc3n2[C@H](c2ccc(F)cc2)COC3)c1 [Compound 54, 1-{4-Bromo-3-[(R)-5-(4-fluoro-phenyl)-5,6-dihydro-8H-[1,2,4]triazolo-[3,4-c][1,4]oxazin-3-ylamino]-phenyl}-tetrahydro-pyrimidin-2-one]
8 | 7.4 | Cc1ccc(-c2cc(C)n(C[C@H](C)O)n2)cc1Nc1nnc2n1[C@H](c1ccc(F)cc1)COC2 [Compound 34, (S)-1-(3-{3-[(R)-5-(4-Fluoro-phenyl)-5,6-dihydro-8H-[1,2,4]triazolo[3,4-c][1,4]oxazin-3-ylamino]-4-methyl-phenyl}-5-methyl-pyrazol-1-yl)-propan-2-ol]
9 | 7.46 | Cc1ccc2[nH]c(=O)ccc2c1Nc1nnc2n1[C@H](c1ccc(F)cc1)COC2 [Compound 38, 5-[(R)-5-(4-Fluoro-phenyl)-5,6-dihydro-8H-[1,2,4]triazolo[3,4-c][1,4]oxazin-3-ylamino]-6-methyl-1H-quinolin-2-one]
10 | 6.945 | COc1cc(Br)c(Nc2nnc3n2C(c2ccc(F)cc2)CN(C(C)=O)C3)cc1OC (stereo not shown) [Compound 24, 1-[3-(2-Bromo-4,5-dimethoxy-phenylamino)-5-(4-fluoro-phenyl)-5,6-dihydro-8H-[1,2,4]triazolo[4,3-a]pyrazin-7-yl]-ethanone]
11 | 7.735 | Cc1ccc(-c2cc(C)n(CCO)n2)cc1Nc1nnc2n1[C@H](c1ccc(F)cc1)COC2 [Compound 30, 2-(3-{3-[(R)-5-(4-Fluoro-phenyl)-5,6-dihydro-8H-[1,2,4]triazolo[3,4-c][1,4]oxazin-3-ylamino]-4-methyl-phenyl}-5-methyl-pyrazol-1-yl)-ethanol]
12 | 5.625 | C[C@H](CO)N1Cc2c(Nc3nnc4n3C(c3cccc(F)c3)COC4)ccc(Cl)c2C1=O (stereo partly drawn) [Compound 28, 7-Chloro-4-[5-(3-fluoro-phenyl)-5,6-dihydro-8H-[1,2,4]triazolo[3,4-c][1,4]oxazin-3-ylamino]-2-((R)-2-hydroxy-1-methyl-ethyl)-2,3-dihydro-isoindol-1-one]

The remaining lines, values behind:

Row | SMILES | pIC50
13 | Cc1cc(Cl)c(OCCO)cc1Nc1nnc2n1[C@H](c1ccc(F)cc1)COC2 [Compound 21, 2-{2-Chloro-5-[(R)-5-(4-fluoro-phenyl)-5,6-dihydro-8H-[1,2,4]triazolo[3,4-c][1,4]oxazin-3-ylamino]-4-methyl-phenoxy}-ethanol] | 7.59
14 | COc1cc(Br)c(Nc2nnc3n2[C@H](c2ccc(F)cc2)COC3)cc1OC [Compound 13, (2-Bromo-4,5-dimethoxy-phenyl)-[(R)-5-(4-fluoro-phenyl)-5,6-dihydro-8H-[1,2,4]triazolo[3,4-c][1,4]oxazin-3-yl]-amine] | 7.75
15 | COc1cc(C)c(Nc2nnc3n2[C@H](c2ccc(F)cc2)CCC3)cc1OC [Compound 4, (4,5-Dimethoxy-2-methyl-phenyl)-[(S)-5-(4-fluoro-phenyl)-5,6,7,8-tetrahydro-[1,2,4]triazolo[4,3-a]pyridin-3-yl]-amine] | 7.98
16 | COc1cc(Br)c(Nc2nnc3n2[C@@H](c2ccc(F)cc2)COC3)cc1OC [Compound 12, (2-Bromo-4,5-dimethoxy-phenyl)-[(S)-5-(4-fluoro-phenyl)-5,6-dihydro-8H-[1,2,4]triazolo[3,4-c][1,4]oxazin-3-yl]-amine] | 5.1167
17 | Cc1cnn(-c2ccc(C)c(Nc3nnc4n3[C@H](c3ccc(F)cc3)COC4)c2)c1 [Compound 22, [(R)-5-(4-Fluoro-phenyl)-5,6-dihydro-8H-[1,2,4]triazolo[3,4-c][1,4]oxazin-3-yl]-[2-methyl-5-(4-methyl-pyrazol-1-yl)-phenyl]-amine] | 7.855
18 | COc1cc(Br)c(Nc2nnc3n2C(c2ccc(F)cc2)COC3)cc1OC (stereo not shown) [Compound 5, (2-Bromo-4,5-dimethoxy-phenyl)-[5-(4-fluoro-phenyl)-5,6-dihydro-8H-[1,2,4]triazolo[3,4-c][1,4]oxazin-3-yl]-amine] | 7.775
19 | CCc1c(Nc2nnc3n2C(c2ccc(F)cc2)CCC3)ccc2ncccc12 (stereo not shown) [Compound 2, (5-Ethyl-quinolin-6-yl)-[5-(4-fluoro-phenyl)-5,6,7,8-tetrahydro-[1,2,4]triazolo[4,3-a]pyridin-3-yl]-amine] | 7.52
20 | Cc1cc(Cl)c(OCCO)cc1Nc1nnc2n1[C@H](c1ccc(F)cc1)CCC2 [Compound 15, 2-{2-Chloro-5-[(S)-5-(4-fluoro-phenyl)-5,6,7,8-tetrahydro-[1,2,4]triazolo[4,3-a]pyridin-3-ylamino]-4-methyl-phenoxy}-ethanol] | 7.133
21 | Cc1cc(-c2ccc(C)c(Nc3nnc4n3[C@H](c3ccc(F)cc3)COC4)c2)n[nH]1 [Compound 14, [(R)-5-(4-Fluoro-phenyl)-5,6-dihydro-8H-[1,2,4]triazolo[3,4-c][1,4]oxazin-3-yl]-[2-methyl-5-(5-methyl-1H-pyrazol-3-yl)-phenyl]-amine] | 7.62
22 | Fc1cccc(C2COCc3nnc(Nc4cccc5ncccc45)n32)c1 (stereo not shown) [Compound 20, [5-(3-Fluoro-phenyl)-5,6-dihydro-8H-[1,2,4]triazolo[3,4-c][1,4]oxazin-3-yl]-quinolin-5-yl-amine] | 6.987
23 | COc1cc(Br)c(Nc2nnc3n2C(c2ccccc2)CC2(C3)OCCO2)cc1OC (stereo not shown) [Compound 7, (2-Bromo-4,5-dimethoxy-phenyl)-(7,7′-spiro-ethylenedioxy-5-phenyl-5,6,7,8-tetrahydro-[1,2,4]triazolo[4,3-a]pyridin-3-yl)-amine] | 6.2
24 | COc1cc(Br)c(Nc2nnc3n2C(c2ccc(F)cc2)CNC3)cc1OC (stereo not shown) [Compound 17, (2-Bromo-4,5-dimethoxy-phenyl)-[5-(4-fluoro-phenyl)-5,6,7,8-tetrahydro-[1,2,4]triazolo[4,3-a]pyrazin-3-yl]-amine] | 7.3267

tested on: not given; assay: not given

Row | melting point [°C] | SMILES
25 | 161 to 162 | Cc1cc(Cl)c(OCCO)cc1Nc1nnc2n1[C@H](c1ccc(F)cc1)COC2 [Compound 21, 2-{2-Chloro-5-[(R)-5-(4-fluoro-phenyl)-5,6-dihydro-8H-[1,2,4]triazolo[3,4-c][1,4]oxazin-3-ylamino]-4-methyl-phenoxy}-ethanol]
